Results on two molecules are retold here after PMC6009964, “Designing, synthesis and bioactivities of 4-[3-(4-hydroxyphenyl)-5-aryl-4,5-dihydro-pyrazol-1-yl]benzenesulfonamides” (Journal of Enzyme Inhibition and Medicinal Chemistry, 2016).

Data set [1] is described as follows: Cytotoxicity assay (MTT), normal oral cells (mean). Conditions: human, normal oral cells HGF, HPLF, HPC (mean of the three).
Data set [2] concerns the target T1, hCA IX (Homo sapiens, UniProt Q16790).
T1 construct: made in house
The data set can be described thus: Stopped-flow CO2 hydration carbonic anhydrase assay, hCA IX. It counts as biochemical. Conditions: for Ki: stopped-flow CO2 hydration, 15 min preincubation, pH 7.5.

Data set [3] has as its system HSC-2 human oral squamous cell carcinoma cell line (tongue). The data set can be described thus: Cytotoxicity assay (MTT), HSC-2. As to conditions: for CC50: Homo sapiens, HSC-2, 48 h, read-out: CC50 HSC-2; for SI (HSC-2): average CC50 of nonmalignant cells / CC50 towards HSC-2.
Data set [4] is described as follows: Cytotoxicity assay (MTT), HGF. Conditions: human, normal gingival fibroblasts (HGF).
The test system of data set [5] is HSC-4 human oral squamous cell carcinoma cell line (tongue). Put plainly: Cytotoxicity assay (MTT), HSC-4. Conditions: for CC50: Homo sapiens, HSC-4, 48 h, read-out: CC50 HSC-4; for SI (HSC-4): average CC50 of nonmalignant cells / CC50 towards HSC-4.
A short description of data set [6]: Cytotoxicity assay (MTT), HPLF. As to conditions: human, normal periodontal ligament fibroblasts (HPLF).
Data set [7] deals with T2, hCA XII (Homo sapiens, UniProt O43570).
T2 construct: made in house
T2 sequence (O43570 25-354): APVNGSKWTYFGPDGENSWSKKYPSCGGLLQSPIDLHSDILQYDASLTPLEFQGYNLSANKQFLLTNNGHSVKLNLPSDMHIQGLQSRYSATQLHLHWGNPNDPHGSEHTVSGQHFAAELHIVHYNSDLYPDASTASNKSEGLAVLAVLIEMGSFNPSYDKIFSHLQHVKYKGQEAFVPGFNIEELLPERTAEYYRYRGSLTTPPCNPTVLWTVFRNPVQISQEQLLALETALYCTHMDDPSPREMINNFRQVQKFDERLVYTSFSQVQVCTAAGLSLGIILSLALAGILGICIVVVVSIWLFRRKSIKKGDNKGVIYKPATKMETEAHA
The data set can be described thus: Stopped-flow CO2 hydration carbonic anhydrase assay, hCA XII. The data set is classed as biochemical. As to conditions: for Ki: stopped-flow CO2 hydration, 15 min preincubation, pH 7.5; for hCA XII/hCA IX (selectivity ratio of Ki): times more selective towards hCA XII than hCA IX.

Data set [8] in a line: Cytotoxicity assay (MTT), HPC. Conditions: human, normal pulp cells (HPC).
Data set [9] has as its system Ca9–22 human oral squamous cell carcinoma cell line (gingiva). Put plainly: Cytotoxicity assay (MTT), Ca9-22. As to conditions: for TS (C/A): CC50 HGF / CC50 Ca9–22 (same tissue origin, gingiva); for CC50: Homo sapiens, Ca9-22, 48 h, read-out: CC50 Ca9–22 (A); for SI (Ca9–22): average CC50 of nonmalignant cells / CC50 towards Ca9–22.
In data set [10] the test system is HSC-3 human oral squamous cell carcinoma cell line (tongue). Put plainly: Cytotoxicity assay (MTT), HSC-3. As to conditions: for CC50: Homo sapiens, HSC-3, 48 h, read-out: CC50 HSC-3; for SI (HSC-3): average CC50 of nonmalignant cells / CC50 towards HSC-3.
Data set [11] concerns Human oral squamous cell carcinoma cell lines (Ca9–22, HSC-2, HSC-3, HSC-4). Put plainly: Cytotoxicity assay (MTT), all four OSCC lines (mean, selectivity). As to conditions: for CC50: Homo sapiens, read-out: CC50 Mean (B), human oral squamous cell carcinoma cell lines; for TS (D/B): mean CC50 against normal cells / mean CC50 against cancer cells; for Mean SI: mean SI over four OSCC cell lines.

As to `NS(=O)(=O)c1ccc(N2N=C(c3ccc(O)cc3)CC2c2ccc(Cl)cc2Cl)cc1` (stereo not drawn) [Compound 5, 4-[5-(2,4-Dichlorophenyl)-3-(4-hydroxyphenyl)-4,5-dihydro-pyrazol-1-yl]benzenesulfonamide], the CC50 at 48 h in data set [1] was 76.2 µM. Moreover, the “times more potent than compound 1 towards hCA IX” value in [2] (ratio of Ki versus compound 1) was determined as 10.8. The molecule also gave an inhibitory constant (Ki) in data set [2] of 85.7 nM. Moreover, in data set [3], the cytotoxic concentration (CC50) was 82.3 µM and the “SI (HSC-2)” value amounted to 0.9. This molecule showed a CC50 at 48 h in data set [4] of 63 µM. Moreover, in data set [5], the half-maximal cytotoxic concentration (CC50) stood at 54 µM and the “SI (HSC-4)” value came to 1.4. Half-maximal cytotoxicity in data set [6] (CC50 at 48 h) was put at 34.7 µM. Besides, the “times more potent than compound 1 towards hCA XII” value in data set [7] (ratio of Ki versus compound 1) amounted to 7.5. Further, in [7], the affinity corresponds to a Ki of 9.2 nM and the “hCA XII/hCA IX (selectivity ratio of Ki)” value was 9.3. In [8], this molecule yielded a CC50 at 48 h of 131 µM. Moreover, in [9], the “TS (C/A)” value worked out at 1.4, the CC50 stood at 44.3 µM and the “SI (Ca9–22)” value was 1.7. Besides, in [10], the CC50 is 76 µM and the “SI (HSC-3)” value came out at 1.0. Further, in data set [11], the CC50 stood at 64.2 µM, the “TS (D/B)” value was 1.2 and the “Mean SI” value is 1.3.

Molecule `COc1ccc(C2CC(c3ccc(O)cc3)=NN2c2ccc(S(N)(=O)=O)cc2)cc1` (stereo not drawn) [Compound 3, 4-[3-(4-Hydroxyphenyl)-5-(4-methoxyphenyl)-4,5-dihydro-pyrazol-1-yl]benzenesulfonamide] returned a CC50 at 48 h in data set [1] of 105 µM. In addition, the “times increased inhibition potential versus compound 2 towards hCA IX” value in data set [2] (ratio of Ki versus compound 2) came to 1.1. Also, in data set [2], the affinity corresponds to a Ki of 93.1 nM. Further, in [3], the CC50 was found to be 95.3 µM and the “SI (HSC-2)” value amounted to 1.1. In data set [4], this molecule displayed a 50% cytotoxic concentration (CC50) at 48 h of 108 µM. Further, in data set [5], the CC50 came to 88.3 µM and the “SI (HSC-4)” value is listed as 1.2. Besides, in [6], the cytotoxic concentration (CC50) at 48 h came to 39.3 µM. Besides, the “times increased inhibition potential versus compound 2 towards hCA XII” value in [7] (ratio of Ki versus compound 2) was 2.8. Besides, in [7], the inhibition constant Ki stood at 33.6 nM and the “hCA XII/hCA IX (selectivity ratio of Ki)” value is listed as 2.8. In [8], the CC50 at 48 h amounted to 167 µM. For the same molecule, in data set [9], the “TS (C/A)” value is 2.0, the CC50 is 53.3 µM and the “SI (Ca9–22)” value was found to be 2.0. Besides, in [10], the CC50 came to 71 µM and the “SI (HSC-3)” value was determined as 1.5. In data set [11], the CC50 turned out to be 77 µM, the “TS (D/B)” value was found to be 1.4 and the “Mean SI” value is 1.4.
